{"source": "paper PMC5218480", "about": "(PLoS ONE, 2017)", "system": "MV-4-11 cells", "test": "Gene expression microarray analysis (Affymetrix PrimeView) and GSEA", "format": "cell-based, human", "parameters": "RFU PODN (11730768_x_at) / Fold change /veh PODN (11730768_x_at) / RFU LINC00158 (11744669_a_at) / Fold change /veh LINC00158 (11744669_a_at) / RFU DUSP10 (11751237_a_at) / Fold change /veh DUSP10 (11751237_a_at) / RFU ID3 (11757404_x_at) / Fold change /veh ID3 (11757404_x_at) / RFU PLEKHG5 (11737974_s_at) / Fold change /veh PLEKHG5 (11737974_s_at) / RFU LRRC4B (11730491_at) / Fold change /veh LRRC4B (11730491_at) / RFU GIMAP4 (11747438_a_at) / Fold change /veh GIMAP4 (11747438_a_at) / RFU KRT8 (11758183_x_at) / Fold change /veh KRT8 (11758183_x_at) / RFU CNN1 (11734310_a_at) / Fold change /veh CNN1 (11734310_a_at) / RFU VPS37D (11726825_at) / Fold change /veh VPS37D (11726825_at) / RFU C10orf10 (11716522_x_at) / Fold change /veh C10orf10 (11716522_x_at) / RFU KIR2DL2 /// KIR2DL4 /// KIR2DL5A /// KIR2DL5B /// KIR2DS1 /// KIR2DS2 /// KIR2DS3 /// KIR2DS4 /// KIR3DL3 /// KIR3DL3 /// KIR3DS1 (11738374_at) / Fold change /veh KIR2DL2 /// KIR2DL4 /// KIR2DL5A /// KIR2DL5B /// KIR2DS1 /// KIR2DS2 /// KIR2DS3 /// KIR2DS4 /// KIR3DL3 /// KIR3DL3 /// KIR3DS1 (11738374_at) / RFU C1QL1 (11718748_at) / Fold change /veh C1QL1 (11718748_at) / RFU TMPRSS4 (11747572_a_at) / Fold change /veh TMPRSS4 (11747572_a_at) / RFU HAMP (11756126_x_at) / Fold change /veh HAMP (11756126_x_at) / RFU RNFT2 (11725882_a_at) / Fold change /veh RNFT2 (11725882_a_at) / RFU NR4A2 (11747474_a_at) / Fold change /veh NR4A2 (11747474_a_at) / RFU ABCC12 (11746883_a_at) / Fold change /veh ABCC12 (11746883_a_at) / RFU TMEM136 (11760407_x_at) / Fold change /veh TMEM136 (11760407_x_at) / RFU CLDN22 /// WWC2 (11732394_at) / Fold change /veh CLDN22 /// WWC2 (11732394_at) / RFU HLA-DPB1 (11760878_x_at) / Fold change /veh HLA-DPB1 (11760878_x_at) / RFU SPINT1 (11716480_a_at) / Fold change /veh SPINT1 (11716480_a_at) / RFU GAP43 (11754022_s_at) / Fold change /veh GAP43 (11754022_s_at) / RFU A4GNT (11735810_at) / Fold change /veh A4GNT (11735810_at) / RFU PRB3 (11715151_x_at) / Fold change /veh PRB3 (11715151_x_at) / RFU TUBB4B (11761932_at) / Fold change /veh TUBB4B (11761932_at) / RFU CAPN14 (11732068_a_at) / Fold change /veh CAPN14 (11732068_a_at) / RFU TMCC2 (11721928_a_at) / Fold change /veh TMCC2 (11721928_a_at) / RFU IRGQ (11745062_a_at) / Fold change /veh IRGQ (11745062_a_at) / RFU FAM174B (11720279_a_at) / Fold change /veh FAM174B (11720279_a_at) / RFU TMPRSS4 (11748680_a_at) / Fold change /veh TMPRSS4 (11748680_a_at) / RFU FAM212B (11763350_a_at) / Fold change /veh FAM212B (11763350_a_at) / RFU PLEKHG5 (11743358_a_at) / Fold change /veh PLEKHG5 (11743358_a_at) / RFU ZSCAN30 (11745921_a_at) / Fold change /veh ZSCAN30 (11745921_a_at) / RFU CMKLR1 (11741424_a_at) / Fold change /veh CMKLR1 (11741424_a_at) / RFU LOC101060620 /// MAPK8IP1 (11723275_at) / Fold change /veh LOC101060620 /// MAPK8IP1 (11723275_at) / RFU SPTSSB (11747773_x_at) / Fold change /veh SPTSSB (11747773_x_at) / RFU PRSS12 (11739890_at) / Fold change /veh PRSS12 (11739890_at) / RFU BIN1 (11741810_x_at) / Fold change /veh BIN1 (11741810_x_at) / RFU WNT11 (11732464_a_at) / Fold change /veh WNT11 (11732464_a_at) / RFU C10orf10 (11716521_a_at) / Fold change /veh C10orf10 (11716521_a_at) / RFU C5orf56 (11738089_at) / Fold change /veh C5orf56 (11738089_at) / RFU CYB561 (11721691_x_at) / Fold change /veh CYB561 (11721691_x_at) / RFU ANKRD19P (11752326_a_at) / Fold change /veh ANKRD19P (11752326_a_at) / RFU OR2T12 /// OR2T33 /// OR2T8 (11738714_s_at) / Fold change /veh OR2T12 /// OR2T33 /// OR2T8 (11738714_s_at) / RFU VCAN (11748164_a_at) / Fold change /veh VCAN (11748164_a_at) / RFU JSRP1 (11732532_at) / Fold change /veh JSRP1 (11732532_at) / RFU KRTAP10-11 (11738290_x_at) / Fold change /veh KRTAP10-11 (11738290_x_at) / RFU MYO3A (11730013_a_at) / Fold change /veh MYO3A (11730013_a_at) / RFU EBF3 (11725865_a_at) / Fold change /veh EBF3 (11725865_a_at) / RFU CAMK2N1 (11719241_x_at) / Fold change /veh CAMK2N1 (11719241_x_at) / RFU C5orf56 (11738088_a_at) / Fold change /veh C5orf56 (11738088_a_at) / RFU OLFML3 (11715873_a_at) / Fold change /veh OLFML3 (11715873_a_at) / RFU LOC100653217 /// NTM (11731650_a_at) / Fold change /veh LOC100653217 /// NTM (11731650_a_at) / RFU MAPK11 (11762145_a_at) / Fold change /veh MAPK11 (11762145_a_at) / RFU FIZ1 (11724087_x_at) / Fold change /veh FIZ1 (11724087_x_at) / RFU OASL (11726364_x_at) / Fold change /veh OASL (11726364_x_at) / RFU SOX15 (11748057_x_at) / Fold change /veh SOX15 (11748057_x_at) / RFU CD79A (11719716_a_at) / Fold change /veh CD79A (11719716_a_at) / RFU HIST1H1D (11736915_at) / Fold change /veh HIST1H1D (11736915_at) / RFU CASKIN2 (11723855_a_at) / Fold change /veh CASKIN2 (11723855_a_at) / RFU LOC730098 (11760151_x_at) / Fold change /veh LOC730098 (11760151_x_at) / RFU OR4N2 (11742367_at) / Fold change /veh OR4N2 (11742367_at) / RFU PRRT2 (11749266_a_at) / Fold change /veh PRRT2 (11749266_a_at) / RFU SNX32 (11753110_a_at) / Fold change /veh SNX32 (11753110_a_at) / RFU CDHR5 (11726645_a_at) / Fold change /veh CDHR5 (11726645_a_at) / RFU RCAN1 (11760418_a_at) / Fold change /veh RCAN1 (11760418_a_at) / RFU FAM167A (11723789_a_at) / Fold change /veh FAM167A (11723789_a_at) / RFU FAM26E (11764081_at) / Fold change /veh FAM26E (11764081_at) / RFU ISYNA1 (11749810_s_at) / Fold change /veh ISYNA1 (11749810_s_at) / RFU ACY1 (11761880_at) / Fold change /veh ACY1 (11761880_at) / RFU 11764098_at / Fold change /veh 11764098_at / RFU SAMD14 (11745864_x_at) / Fold change /veh SAMD14 (11745864_x_at) / RFU NPB (11741838_a_at) / Fold change /veh NPB (11741838_a_at) / RFU TMPRSS6 (11731388_a_at) / Fold change /veh TMPRSS6 (11731388_a_at) / RFU KRTAP10-2 (11738614_at) / Fold change /veh KRTAP10-2 (11738614_at) / RFU ARHGAP8 /// PRR5-ARHGAP8 (11727945_x_at) / Fold change /veh ARHGAP8 /// PRR5-ARHGAP8 (11727945_x_at) / RFU KRTAP5-7 /// NADSYN1 (11734609_at) / Fold change /veh KRTAP5-7 /// NADSYN1 (11734609_at) / RFU RASL12 (11751679_a_at) / Fold change /veh RASL12 (11751679_a_at) / RFU CDKN2B (11736163_a_at) / Fold change /veh CDKN2B (11736163_a_at) / RFU PRF1 (11729649_at) / Fold change /veh PRF1 (11729649_at) / RFU, ZNF638 /// ZNF638-IT1 / Fold change vs veh, ZNF638 /// ZNF638-IT1 / RFU, PANK3 / Fold change vs veh, PANK3 / RFU, SH3YL1 / Fold change vs veh, SH3YL1 / RFU, ZEB2 / Fold change vs veh, ZEB2 / RFU, NRIP1 / Fold change vs veh, NRIP1 / RFU, PTTG1IP / Fold change vs veh, PTTG1IP / RFU, CAPN2 / Fold change vs veh, CAPN2 / RFU, MED14 / Fold change vs veh, MED14 / RFU, SNORA58 / Fold change vs veh, SNORA58 / RFU, C1orf63 / Fold change vs veh, C1orf63 / RFU, LRRFIP1 / Fold change vs veh, LRRFIP1 / RFU, NDUFAF7 / Fold change vs veh, NDUFAF7 / RFU, SLC12A2 / Fold change vs veh, SLC12A2 / RFU, IBTK / Fold change vs veh, IBTK / RFU, ESF1 / Fold change vs veh, ESF1 / Fold change vs veh, TMEM50B / RFU, TAOK1 / Fold change vs veh, TAOK1 / RFU, ACBD3 / Fold change vs veh, ACBD3 / RFU, TMA16 / Fold change vs veh, TMA16 / RFU, RWDD3 / Fold change vs veh, RWDD3 / RFU, BCAT1 / Fold change vs veh, BCAT1 / RFU, EDEM3 / Fold change vs veh, EDEM3 / RFU, TMEM33 / Fold change vs veh, TMEM33 / RFU, WDR75 / Fold change vs veh, WDR75 / RFU, AHCTF1 / Fold change vs veh, AHCTF1 / RFU, TFRC / Fold change vs veh, TFRC / RFU, ZDHHC17 / Fold change vs veh, ZDHHC17 / RFU, NOM1 / Fold change vs veh, NOM1 / RFU, ARL8B / Fold change vs veh, ARL8B / RFU, ZBTB11 / Fold change vs veh, ZBTB11 / RFU, TAMM41 / Fold change vs veh, TAMM41 / RFU, KIAA1704 /// LOC100996395 / Fold change vs veh, KIAA1704 /// LOC100996395 / RFU, ING1 / Fold change vs veh, ING1 / RFU, TRMT61B / Fold change vs veh, TRMT61B / RFU, FUBP3 / Fold change vs veh, FUBP3 / RFU, TP53 / Fold change vs veh, TP53 / RFU, TNKS2 / Fold change vs veh, TNKS2 / RFU, ZFP14 / Fold change vs veh, ZFP14 / RFU, ACTR2 / Fold change vs veh, ACTR2 / RFU, PPP3R1 / Fold change vs veh, PPP3R1 / RFU, PIK3R1 / Fold change vs veh, PIK3R1 / RFU, HNRNPA1 / Fold change vs veh, HNRNPA1 / RFU, RNF170 / Fold change vs veh, RNF170 / RFU, ZNF28 / Fold change vs veh, ZNF28 / RFU, RNGTT / Fold change vs veh, RNGTT / RFU, OGT / Fold change vs veh, OGT / RFU, BRD1 / Fold change vs veh, BRD1 / RFU, MARS / Fold change vs veh, MARS / RFU, ZNF655 / Fold change vs veh, ZNF655 / RFU, FAHD1 / Fold change vs veh, FAHD1 / RFU, BDP1 / Fold change vs veh, BDP1 / RFU, LRRCC1 / Fold change vs veh, LRRCC1 / RFU, ARID1A / Fold change vs veh, ARID1A / RFU, ZNF146 / Fold change vs veh, ZNF146 / RFU, ZNF330 / Fold change vs veh, ZNF330 / RFU, GPN3 / Fold change vs veh, GPN3 / RFU, C9orf123 / Fold change vs veh, C9orf123 / RFU, N4BP2L2 / Fold change vs veh, N4BP2L2 / RFU, ARFIP1 / Fold change vs veh, ARFIP1 / RFU, FAM179B / Fold change vs veh, FAM179B / RFU, BCL10 / Fold change vs veh, BCL10 / RFU, UHRF1BP1L / Fold change vs veh, UHRF1BP1L / RFU, BET1 / Fold change vs veh, BET1 / RFU, CNOT2 / Fold change vs veh, CNOT2 / RFU, ZNF268 / Fold change vs veh, ZNF268 / Fold change vs veh, ZNF507 / RFU, DGCR2 / Fold change vs veh, DGCR2 / RFU, WDSUB1 / Fold change vs veh, WDSUB1 / Fold change vs veh, HSP90B1 /// MIR3652 / RFU, ADSS / Fold change vs veh, ADSS / RFU, GK / Fold change vs veh, GK / RFU, ZNF148 / Fold change vs veh, ZNF148 / RFU, TAF9 / Fold change vs veh, TAF9 / RFU, SLC1A5 / Fold change vs veh, SLC1A5 / RFU, SLMO2 / Fold change vs veh, SLMO2 / RFU, ABCC4 / Fold change vs veh, ABCC4 / RFU, LOC101060439 /// RAP1B / Fold change vs veh, LOC101060439 /// RAP1B / RFU, RFX7 / Fold change vs veh, RFX7 / RFU, GTPBP10 / Fold change vs veh, GTPBP10 / RFU, CNEP1R1 / Fold change vs veh, CNEP1R1 / RFU, BIVM-ERCC5 /// ERCC5 / Fold change vs veh, BIVM-ERCC5 /// ERCC5 / RFU, ILF3 / Fold change vs veh, ILF3 / RFU 11762660_at / Fold change /veh 11762660_at / RFU VCAN (11757783_s_at) / Fold change /veh VCAN (11757783_s_at) / RFU DDX43 (11728927_at) / Fold change /veh DDX43 (11728927_at) / RFU KRT8 (11758188_x_at) / Fold change /veh KRT8 (11758188_x_at) / RFU NKD1 (11759106_at) / Fold change /veh NKD1 (11759106_at) / RFU SRD5A1 (11742802_a_at) / Fold change /veh SRD5A1 (11742802_a_at) / RFU TPSAB1 /// TPSB2 (11721975_s_at) / Fold change /veh TPSAB1 /// TPSB2 (11721975_s_at) / RFU GSTM3 (11746129_a_at) / Fold change /veh GSTM3 (11746129_a_at) / RFU IL23R (11737362_x_at) / Fold change /veh IL23R (11737362_x_at) / RFU TMEM51 (11727254_a_at) / Fold change /veh TMEM51 (11727254_a_at) / RFU PIWIL2 (11732686_x_at) / Fold change /veh PIWIL2 (11732686_x_at) / RFU ORM1 (11744905_x_at) / Fold change /veh ORM1 (11744905_x_at) / RFU CCDC152 (11743942_at) / Fold change /veh CCDC152 (11743942_at) / RFU ECM1 (11717891_a_at) / Fold change /veh ECM1 (11717891_a_at) / RFU IL23R (11748794_a_at) / Fold change /veh IL23R (11748794_a_at) / RFU TNFAIP8L3 (11732012_x_at) / Fold change /veh TNFAIP8L3 (11732012_x_at) / RFU MBOAT4 (11741988_at) / Fold change /veh MBOAT4 (11741988_at) / RFU 11764193_at / Fold change /veh 11764193_at / RFU TMEM53 (11763286_at) / Fold change /veh TMEM53 (11763286_at) / RFU MAGEB2 (11727129_at) / Fold change /veh MAGEB2 (11727129_at) / RFU TMEM200A (11744735_a_at) / Fold change /veh TMEM200A (11744735_a_at) / RFU CCDC152 (11751479_a_at) / Fold change /veh CCDC152 (11751479_a_at) / RFU FAM211A (11726209_a_at) / Fold change /veh FAM211A (11726209_a_at) / RFU RGS16 (11746705_a_at) / Fold change /veh RGS16 (11746705_a_at) / RFU VCAN (11755009_s_at) / Fold change /veh VCAN (11755009_s_at) / RFU RHOB (11743442_s_at) / Fold change /veh RHOB (11743442_s_at) / RFU RGS16 (11720943_a_at) / Fold change /veh RGS16 (11720943_a_at) / RFU RGS16 (11720944_at) / Fold change /veh RGS16 (11720944_at) / RFU, VPS4B / Fold change vs veh, VPS4B / RFU, CREB1 / Fold change vs veh, CREB1 / RFU, DNAJC13 / Fold change vs veh, DNAJC13 / RFU, GNAQ / Fold change vs veh, GNAQ / RFU, CDK5R1 / Fold change vs veh, CDK5R1 / RFU, ZRANB3 / Fold change vs veh, ZRANB3 / RFU, CUL4A / Fold change vs veh, CUL4A / RFU, CCNY / Fold change vs veh, CCNY / RFU, UFL1 / Fold change vs veh, UFL1 / RFU, COG3 / Fold change vs veh, COG3 / RFU, DIAPH2 / Fold change vs veh, DIAPH2 / RFU, SKA2 / Fold change vs veh, SKA2 / RFU, AFF3 / Fold change vs veh, AFF3 / RFU, LMF1 / Fold change vs veh, LMF1 / RFU, IPO11 / Fold change vs veh, IPO11 / RFU, DFFB / Fold change vs veh, DFFB / RFU, FOXP1 / Fold change vs veh, FOXP1 / RFU, CARD8 / Fold change vs veh, CARD8 / RFU, STRN3 / Fold change vs veh, STRN3 / RFU, ADK / Fold change vs veh, ADK / RFU, RASSF2 / Fold change vs veh, RASSF2 / RFU, WIPF1 / Fold change vs veh, WIPF1 / RFU, LARP1B / Fold change vs veh, LARP1B / RFU, RASA1 / Fold change vs veh, RASA1 / RFU, RB1 / Fold change vs veh, RB1 / RFU, PPFIA1 / Fold change vs veh, PPFIA1 / RFU, MAT2A / Fold change vs veh, MAT2A / RFU, CCT5 / Fold change vs veh, CCT5 / RFU, WDR92 / Fold change vs veh, WDR92 / RFU, CUX1 / Fold change vs veh, CUX1 / RFU, TTC7A / Fold change vs veh, TTC7A / RFU, TMEM135 / Fold change vs veh, TMEM135 / RFU, DEPTOR / Fold change vs veh, DEPTOR / RFU, CPM / Fold change vs veh, CPM / RFU, DNAJB6 / Fold change vs veh, DNAJB6 / RFU, CACNA2D3 / Fold change vs veh, CACNA2D3 / RFU, DTX4 / Fold change vs veh, DTX4 / RFU, TFCP2 / Fold change vs veh, TFCP2 / RFU, GMCL1 /// GMCL1P1 / Fold change vs veh, GMCL1 /// GMCL1P1 / RFU, AEBP2 / Fold change vs veh, AEBP2 / RFU, SNHG1 /// SNORD22 /// SNORD25 /// SNORD26 /// SNORD27 /// SNORD28 /// SNORD29 /// SNORD31 / Fold change vs veh, SNHG1 /// SNORD22 /// SNORD25 /// SNORD26 /// SNORD27 /// SNORD28 /// SNORD29 /// SNORD31 / Fold change (Aza/veh), C12orf56 (ProbeSet 11735607_a_at) / Fold change (ACY-1035/veh), C12orf56 (ProbeSet 11735607_a_at) / Fold change (Aza/veh), FGFR1OP (ProbeSet 11751329_s_at) / Fold change (ACY-1035/veh), FGFR1OP (ProbeSet 11751329_s_at) / Fold change (Aza/veh), VPS36 (ProbeSet 11739960_a_at) / Fold change (ACY-1035/veh), VPS36 (ProbeSet 11739960_a_at) / RFU SYPL1 (11715823_x_at) / Fold change /veh SYPL1 (11715823_x_at) / RFU IGFBP7 (11715501_s_at) / Fold change /veh IGFBP7 (11715501_s_at) / RFU REEP3 (11722064_at) / Fold change /veh REEP3 (11722064_at) / RFU IGLL1 (11728026_x_at) / Fold change /veh IGLL1 (11728026_x_at): dose or concentration left out as unconfirmed", "settings": "MV-4-11 cells, 48 hours", "data": [{"smiles": "Nc1ncn([C@@H]2O[C@H](CO)[C@@H](O)[C@H]2O)c(=O)n1", "note": "[azacitidine]", "values": [{"measurement": "RFU TMEM51 (11727254_a_at)", "value": 17.35, "unit": "RFU"}]}]}
